{
  "source": "patent US8906925B2",
  "about": "“Pyrido[4,3-B]indoles containing rigid moieties” (Medivation Technologies, Inc., priority 2008, dated 2014)",
  "key": {"[1]": {"molecular_target": "histamine receptor H1 (Homo sapiens, UniProt P35367)", "sequence (P35367 whole entry)": "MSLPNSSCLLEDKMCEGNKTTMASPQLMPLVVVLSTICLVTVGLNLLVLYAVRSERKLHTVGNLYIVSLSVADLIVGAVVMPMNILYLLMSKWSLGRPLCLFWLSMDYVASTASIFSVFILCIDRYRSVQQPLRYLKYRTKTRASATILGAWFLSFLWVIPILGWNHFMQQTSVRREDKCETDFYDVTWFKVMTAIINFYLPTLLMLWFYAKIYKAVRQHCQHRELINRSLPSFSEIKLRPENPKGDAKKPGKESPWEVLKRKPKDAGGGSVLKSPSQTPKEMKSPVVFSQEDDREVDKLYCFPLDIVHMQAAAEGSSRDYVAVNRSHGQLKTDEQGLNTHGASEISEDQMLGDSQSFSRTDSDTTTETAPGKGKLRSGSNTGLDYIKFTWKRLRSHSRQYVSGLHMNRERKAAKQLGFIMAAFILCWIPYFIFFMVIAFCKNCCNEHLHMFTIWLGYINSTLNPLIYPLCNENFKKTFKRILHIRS", "assay": "Histamine H1 radioligand binding ([3H]Pyrilamine)", "conditions": "read-out: Histamine Binding (1 μM) H1, percent inhibition of specific binding, 1 μM", "summary_of_the_method": "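Values are percent inhibition of specific [3H]pyrilamine (1.2 nM) binding with compounds at ≤1 μM (1% DMSO vehicle); 180 min incubation at 25 °C, pH 7.4 Tris buffer, on CHO-expressed human H1 receptor; 1 μM pyrilamine defined nonspecific binding, bound ligand counted after filtration.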"}, "[2]": {"molecular_target": "human dopamine D2L receptor (Homo sapiens, UniProt P14416)", "sequence (P14416 whole entry)": "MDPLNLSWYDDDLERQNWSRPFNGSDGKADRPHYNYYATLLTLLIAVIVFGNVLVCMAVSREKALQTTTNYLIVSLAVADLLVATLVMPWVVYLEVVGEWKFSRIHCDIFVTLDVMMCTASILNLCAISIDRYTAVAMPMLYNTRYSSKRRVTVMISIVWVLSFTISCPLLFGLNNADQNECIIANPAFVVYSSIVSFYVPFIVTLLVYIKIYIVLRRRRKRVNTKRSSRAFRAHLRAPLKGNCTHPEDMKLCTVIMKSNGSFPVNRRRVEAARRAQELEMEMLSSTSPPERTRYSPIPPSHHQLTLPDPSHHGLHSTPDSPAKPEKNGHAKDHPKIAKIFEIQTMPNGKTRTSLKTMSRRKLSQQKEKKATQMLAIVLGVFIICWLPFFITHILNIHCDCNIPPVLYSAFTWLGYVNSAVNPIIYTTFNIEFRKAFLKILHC", "assay": "Dopamine D2L radioligand binding ([3H]Spiperone)", "conditions": "compound at 1 μM; […] [3H]Spiperone; read-out: Inhibition of ligand binding, Dopamine D2L (percent inhibition of specific binding)", "source_text": "Non-specific binding was estimated in the presence of […] Haloperidol. Receptor proteins were filtered and washed, the filters were then counted to determine [^3H]Spiperone specifically bound. […] Biochemical assay results are presented as the percent inhibition of specific binding in Table 9."}},
  "data": [
    {"smiles": "CN1CCc2c(c3cc(Cl)ccc3n2/C=C/c2ccccc2)C1", "note": "[compound 415, (E)-8-chloro-2-methyl-5-styryl-2,3,4,5-tetrahydro-1H-pyrido[4,3-b]indole]", "values": [
      {"measurement": "inhibition at 1 µM", "setting": "[1]", "value": 97, "unit": "%"},
      {"measurement": "inhibition at 1 µM", "setting": "[2]", "value": 95, "unit": "%"}
    ]},
    {"smiles": "Cc1ccc2c(c1)c1c(n2/C=C(\\F)c2ccc(Br)nc2)CCN(C)C1", "note": "[compound 416, (Z)-5-(2-(6-bromopyridin-3-yl)-2-fluorovinyl)-2,8-dimethyl-2,3,4,5-tetrahydro-1H-pyrido[4,3-b]indole]", "values": [
      {"measurement": "inhibition at 1 µM", "setting": "[1]", "value": 91, "unit": "%"},
      {"measurement": "inhibition at 1 µM", "setting": "[2]", "value": 20, "unit": "%"}
    ]},
    {"smiles": "C/C(=C/n1c2c(c3cc(Cl)ccc31)CN(C)CC2)c1ccncc1C", "note": "[compound 417, (Z)-8-chloro-2-methyl-5-(2-(3-methylpyridin-4-yl)prop-1-enyl)-2,3,4,5-tetrahydro-1H-pyrido[4,3-b]indole]", "values": [
      {"measurement": "inhibition at 1 µM", "setting": "[1]", "value": 48, "unit": "%"},
      {"measurement": "inhibition at 1 µM", "setting": "[2]", "value": 87, "unit": "%"}
    ]},
    {"smiles": "CO/C(=C(/C)n1c2c(c3cc(C)ccc31)CN(C)CC2)c1ccncc1", "note": "[compound 418, (Z)-5-(1-methoxy-1-(pyridin-4-yl)prop-1-en-2-yl)-2,8-dimethyl-2,3,4,5-tetrahydro-1H-pyrido[4,3-b]indole]", "values": [
      {"measurement": "inhibition at 1 µM", "setting": "[1]", "value": 33, "unit": "%"},
      {"measurement": "inhibition at 1 µM", "setting": "[2]", "value": 14, "unit": "%"}
    ]},
    {"smiles": "Cc1ccc2c(c1)c1c(n2/C(=C(/F)c2ccc(C)nc2)c2ccc(C)nc2)CCN(C)C1", "note": "[compound 419]", "values": [
      {"measurement": "inhibition at 1 µM", "setting": "[1]", "value": 52, "unit": "%"},
      {"measurement": "inhibition at 1 µM", "setting": "[2]", "value": 20, "unit": "%"}
    ]},
    {"smiles": "COc1ccc(/C(F)=C(/c2ccc(OC)nc2)n2c3c(c4cc(C)ccc42)CN(C)CC3)cn1", "note": "[compound 420, (E)-5-(2-fluoro-1,2-bis(6-methoxypyridin-3-yl)vinyl)-2,8-dimethyl-2,3,4,5-tetrahydro-1H-pyrido[4,3-b]indole]", "values": [
      {"measurement": "inhibition at 1 µM", "setting": "[1]", "value": 13, "unit": "%"},
      {"measurement": "inhibition at 1 µM", "setting": "[2]", "value": 29, "unit": "%"}
    ]},
    {"smiles": "C/C(=C(/C)n1c2c(c3cc(C)ccc31)CN(C)CC2)c1ccc(F)cc1", "note": "[compound 421, (E)-5-(3-(4-fluorophenyl)but-2-en-2-yl)-2,8-dimethyl-2,3,4,5-tetrahydro-1H-pyrido[4,3-b]indole]", "values": [
      {"measurement": "inhibition at 1 µM", "setting": "[1]", "value": 93, "unit": "%"},
      {"measurement": "inhibition at 1 µM", "setting": "[2]", "value": 79, "unit": "%"}
    ]},
    {"smiles": "C/C(=C\\n1c2c(c3cc(C)ccc31)CN(CCF)CC2)c1ccncc1", "note": "[compound 422, (E)-2-(2-fluoroethyl)-8-methyl-5-(2-(pyridin-4-yl)prop-1-enyl)-2,3,4,5-tetrahydro-1H-pyrido[4,3-b]indole]", "values": [
      {"measurement": "inhibition at 1 µM", "setting": "[1]", "value": 8, "unit": "%"},
      {"measurement": "inhibition at 1 µM", "setting": "[2]", "value": 68, "unit": "%"}
    ]},
    {"smiles": "CNC(=O)c1ccc(/C(F)=C(/c2ccc(C(=O)NC)c(F)c2)n2c3c(c4cc(C)ccc42)CN(C)CC3)cc1F", "note": "[compound 423, (E)-4,4′-(1-(2,8-dimethyl-3,4-dihydro-1H-pyrido[4,3-b]indol-5(2H)-yl)-2-fluoroethene-1,2-diyl)bis(2-fluoro-N-methylbenzamide)]", "values": [
      {"measurement": "inhibition at 1 µM", "setting": "[1]", "value": 31, "unit": "%"},
      {"measurement": "inhibition at 1 µM", "setting": "[2]", "value": -10, "unit": "%"}
    ]},
    {"smiles": "CNC(=O)c1ccc(/C(F)=C/n2c3c(c4cc(C)ccc42)CN(C)CC3)cc1F", "note": "[compound 424, (Z)-4-(2-(2,8-dimethyl-3,4-dihydro-1H-pyrido[4,3-b]indol-5(2H)-yl)-1-fluorovinyl)-2-fluoro-N-methylbenzamide]", "values": [
      {"measurement": "inhibition at 1 µM", "setting": "[1]", "value": 43, "unit": "%"},
      {"measurement": "inhibition at 1 µM", "setting": "[2]", "value": 20, "unit": "%"}
    ]},
    {"smiles": "Cc1ccc2c(c1)c1c(n2/C(=C(/F)c2ccncc2)c2ccncc2)CCN(C)C1", "note": "[compound 425, (E)-5-(2-fluoro-1,2-di(pyridin-4-yl)vinyl)-2,8-dimethyl-2,3,4,5-tetrahydro-1H-pyrido[4,3-b]indole]", "values": [
      {"measurement": "inhibition at 1 µM", "setting": "[1]", "value": 4, "unit": "%"},
      {"measurement": "inhibition at 1 µM", "setting": "[2]", "value": 6, "unit": "%"}
    ]},
    {"smiles": "Cc1ccc2c(c1)c1c(n2/C=C(\\F)c2ccncc2)CCN(C)C1", "note": "[compound 426, (Z)-5-(2-fluoro-2-(pyridin-4-yl)vinyl)-2,8-dimethyl-2,3,4,5-tetrahydro-1H-pyrido[4,3-b]indole]", "values": [
      {"measurement": "inhibition at 1 µM", "setting": "[1]", "value": 50, "unit": "%"},
      {"measurement": "inhibition at 1 µM", "setting": "[2]", "value": 32, "unit": "%"}
    ]},
    {"smiles": "CC(=O)CN1CCc2c(c3cc(C)ccc3n2/C=C(\\C)c2ccncc2)C1", "note": "[compound 427, (E)-1-(8-methyl-5-(2-(pyridin-4-yl)prop-1-enyl)-3,4-dihydro-1H-pyrido[4,3-b]indol-2(5H)-yl)propan-2-one]", "values": [
      {"measurement": "inhibition at 1 µM", "setting": "[1]", "value": 1, "unit": "%"},
      {"measurement": "inhibition at 1 µM", "setting": "[2]", "value": 17, "unit": "%"}
    ]},
    {"smiles": "C/C(=C\\c1ccccc1)n1c2c(c3cc(C)ccc31)CN(C)CC2", "note": "[compound 428, (E)-2,8-dimethyl-5-(1-phenylprop-1-en-2-yl)-2,3,4,5-tetrahydro-1H-pyrido[4,3-b]indole]", "values": [
      {"measurement": "inhibition at 1 µM", "setting": "[1]", "value": 97, "unit": "%"},
      {"measurement": "inhibition at 1 µM", "setting": "[2]", "value": 57, "unit": "%"}
    ]},
    {"smiles": "C/C(=C/c1ccccc1)n1c2c(c3cc(C)ccc31)CN(C)CC2", "note": "[compound 429, (Z)-2,8-dimethyl-5-(1-phenylprop-1-en-2-yl)-2,3,4,5-tetrahydro-1H-pyrido[4,3-b]indole]", "values": [
      {"measurement": "inhibition at 1 µM", "setting": "[1]", "value": 101, "unit": "%"},
      {"measurement": "inhibition at 1 µM", "setting": "[2]", "value": 30, "unit": "%"}
    ]},
    {"smiles": "COc1ccc(/C(F)=C/n2c3c(c4cc(C)ccc42)CN(C)CC3)cn1", "note": "[compound 430, (Z)-5-(2-fluoro-2-(6-methoxypyridin-3-yl)vinyl)-2,8-dimethyl-2,3,4,5-tetrahydro-1H-pyrido[4,3-b]indole]", "values": [
      {"measurement": "inhibition at 1 µM", "setting": "[1]", "value": 72, "unit": "%"},
      {"measurement": "inhibition at 1 µM", "setting": "[2]", "value": 25, "unit": "%"}
    ]},
    {"smiles": "CNc1ccc2c(c1)c1c(n2/C=C(\\C)c2ccc(F)cc2)CCN(C)C1", "note": "[compound 431, (E)-5-(2-(4-fluorophenyl)prop-1-enyl)-N,2-dimethyl-2,3,4,5-tetrahydro-1H-pyrido[4,3-b]indol-8-amine]", "values": [
      {"measurement": "inhibition at 1 µM", "setting": "[1]", "value": 33, "unit": "%"},
      {"measurement": "inhibition at 1 µM", "setting": "[2]", "value": 80, "unit": "%"}
    ]},
    {"smiles": "CCCCNc1ccc2c(c1)c1c(n2/C=C(\\C)c2ccc(F)cc2)CCN(C)C1", "note": "[compound 432, (E)-N-butyl-5-(2-(4-fluorophenyl)prop-1-enyl)-2-methyl-2,3,4,5-tetrahydro-1H-pyrido[4,3-b]indol-8-amine]", "values": [
      {"measurement": "inhibition at 1 µM", "setting": "[1]", "value": 46, "unit": "%"},
      {"measurement": "inhibition at 1 µM", "setting": "[2]", "value": 79, "unit": "%"}
    ]},
    {"smiles": "CNc1ccc2c(c1)c1c(n2/C=C(\\C)c2ccncc2)CCN(C)C1", "note": "[compound 433, (E)-N,2-dimethyl-5-(2-(pyridin-4-yl)prop-1-enyl)-2,3,4,5-tetrahydro-1H-pyrido[4,3-b]indol-8-amine]", "values": [
      {"measurement": "inhibition at 1 µM", "setting": "[1]", "value": 13, "unit": "%"},
      {"measurement": "inhibition at 1 µM", "setting": "[2]", "value": 61, "unit": "%"}
    ]},
    {"smiles": "CNC(=O)c1ccc(/C(C)=C/n2c3c(c4cc(C)ccc42)CN(C)CC3)cc1", "note": "[compound 435]", "values": [
      {"measurement": "inhibition at 1 µM", "setting": "[1]", "value": 11, "unit": "%"},
      {"measurement": "inhibition at 1 µM", "setting": "[2]", "value": 71, "unit": "%"}
    ]},
    {"smiles": "C/C(=C\\n1c2c(c3cc(C)ccc31)CN(C)CC2)c1ccc(C(=O)N(C)C)cc1", "note": "[compound 436]", "values": [
      {"measurement": "inhibition at 1 µM", "setting": "[1]", "value": 12, "unit": "%"},
      {"measurement": "inhibition at 1 µM", "setting": "[2]", "value": 69, "unit": "%"}
    ]},
    {"smiles": "C/C(=C\\n1c2c(c3cc(N4CCN(C)CC4)ccc31)CN(C)CC2)c1ccncc1", "note": "[compound 437, (E)-2-methyl-8-(4-methylpiperazin-1-yl)-5-(2-(pyridin-4-yl)prop-1-enyl)-2,3,4,5-tetrahydro-1H-pyrido[4,3-b]indole]", "values": [
      {"measurement": "inhibition at 1 µM", "setting": "[1]", "value": 44, "unit": "%"},
      {"measurement": "inhibition at 1 µM", "setting": "[2]", "value": 15, "unit": "%"}
    ]},
    {"smiles": "Cc1ccc2c(c1)c1c(n2/C=C(\\F)c2cscn2)CCN(C)C1", "note": "[compound 438, (Z)-4-(2-(2,8-dimethyl-3,4-dihydro-1H-pyrido[4,3-b]indol-5(2H)-yl)-1-fluorovinyl)thiazole]", "values": [
      {"measurement": "inhibition at 1 µM", "setting": "[1]", "value": 92, "unit": "%"},
      {"measurement": "inhibition at 1 µM", "setting": "[2]", "value": 17, "unit": "%"}
    ]},
    {"smiles": "CC(=O)N(C)c1ccc2c(c1)c1c(n2/C=C(\\C)c2ccncc2)CCN(C)C1", "note": "[compound 439, (E)-N-methyl-N-(2-methyl-5-(2-(pyridin-4-yl)prop-1-enyl)-2,3,4,5-tetrahydro-1H-pyrido[4,3-b]indol-8-yl)acetamide]", "values": [
      {"measurement": "inhibition at 1 µM", "setting": "[1]", "value": 9, "unit": "%"},
      {"measurement": "inhibition at 1 µM", "setting": "[2]", "value": 16, "unit": "%"}
    ]},
    {"smiles": "COCCNc1ccc2c(c1)c1c(n2/C=C(\\C)c2ccncc2)CCN(C)C1", "note": "[compound 440]", "values": [
      {"measurement": "inhibition at 1 µM", "setting": "[1]", "value": 4, "unit": "%"},
      {"measurement": "inhibition at 1 µM", "setting": "[2]", "value": 16, "unit": "%"}
    ]}
  ]
}
